US12612387B2, “RAS inhibitors and methods of using the same” (Jazz Pharmaceuticals Ireland Limited, priority 2020, dated 2026)

Legend:
[1] = target: T1, K-RAS G12C (Homo sapiens, UniProt P01116, G12C); test: Compound depletion assay, K-RAS G12C; assay type: binding; conditions: G12C protein 20 μM, compound 8 μM, 25° C.
T1 construct: His tag; purchased Stratech
Procedure: (§1) Compound Depletion Assay Method
(§2) Lyophilized human K-RAS (12 Cys) protein (His tag) and human K-RAS (12 Asp) protein (His tag) were purchased from Stratech and reconstituted at 30 μM in water. The protein concentration of K-RAS G12C and K-RAS G12D was adjusted to 20 μM in K-RAS Assay Buffer (20 mM HEPES pH 7.5, 150 mM NaCl, 1 mM MgCl2). A 49 μl aliquot of protein solution was transferred to 1.5 ml eppendorfs and incubated at room temperature for 10 minutes. A 1 μl aliquot of compound solution in DMSO was added to the protein solutions in the 1.5 ml eppendorfs to initiate the reaction, with a final assay compound concentration of 8 μM. Reactions were agitated at 25° C., 700 rpm. At each time point (0, 30, 180, 360, 1440 minutes), 10 μl of the reaction mixture was removed, added to 30 μl quench solution (0.3% formic acid, 75 nM propranolol in acetonitrile) to stop the reaction and stored at 4° C. Once all reactions were quenched, the samples were centrifuged at 16000 g for 10 minutes to pellet the protein and salts. A 10 μl aliquot of supernatant containing compound was diluted in 50:50 acetonitrile:H2O in a 96 well plate. The plates were heat sealed and the samples analysed by LC-MS/MS to determine the concentration of compound remaining in the samples. To determine the reaction progress, the compound signal was normalized to the internal standard signal (propranolol). The decrease in free compound concentration is shown as a percentage over time, with the […] at time zero fixed at one hundred percent. Compound is assumed to be completely depleted when no longer detectable with a double blank sample as reference.

[2] = target: T2, K-RAS G12D (Homo sapiens, UniProt P01116, G12D); test: Compound depletion assay, K-RAS G12D; assay type: binding; conditions: G12D protein 20 μM, compound 8 μM, 25° C.
T2 construct: His tag; purchased Stratech
T2 sequence (P01116 1-188 isoform P01116-2 G12D): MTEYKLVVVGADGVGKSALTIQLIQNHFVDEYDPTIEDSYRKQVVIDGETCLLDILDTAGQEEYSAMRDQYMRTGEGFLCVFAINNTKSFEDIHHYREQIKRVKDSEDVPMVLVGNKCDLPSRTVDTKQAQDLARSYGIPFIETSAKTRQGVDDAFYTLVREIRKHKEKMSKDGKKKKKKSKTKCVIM
Procedure: as §1, §2

T1 sequence (P01116 1-188 isoform P01116-2 G12C): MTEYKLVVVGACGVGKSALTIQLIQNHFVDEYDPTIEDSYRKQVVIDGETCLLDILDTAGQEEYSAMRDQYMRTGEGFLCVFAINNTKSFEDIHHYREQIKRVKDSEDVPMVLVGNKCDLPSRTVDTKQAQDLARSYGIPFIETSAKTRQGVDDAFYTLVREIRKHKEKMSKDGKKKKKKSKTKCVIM

3 hr Category (compound remaining at timepoint) [1] | 6 hr Category (compound remaining at timepoint) [1] | 30 min Category (compound remaining at timepoint) [2] | 3 hr Category (compound remaining at timepoint) [2] | 6 hr Category (compound remaining at timepoint) [2] | 24 hr Category (compound remaining at timepoint) [1] | 24 hr Category (compound remaining at timepoint) [2] | Compound | 30 min Category (compound remaining at timepoint) [1]
C (≤30% compound remaining at timepoint) | C (≤30% compound remaining at timepoint) | A (≥70% compound remaining at timepoint) | A (≥70% compound remaining at timepoint) | A (≥70% compound remaining at timepoint) | – | – | C=CC(=O)N1CCN(c2cc(C(=O)Nc3cc(O)cc4ccccc34)nc(OCC3CN(C)CCO3)n2)C[C@@H]1CC#N (stereo in doubt) [Example 52, 6-[(3S)-3-(cyanomethyl)-4-prop-2-enoyl-piperazin-1-yl]-N-(3-hydroxy-1-naphthyl)-2-[[(2R)-4-methylmorpholin-2-yl]methoxy]pyrimidine-4-carboxamide] | C (≤30% compound remaining at timepoint)
C (≤30% compound remaining at timepoint) | C (≤30% compound remaining at timepoint) | – | A (≥70% compound remaining at timepoint) | – | C (≤30% compound remaining at timepoint) | A (≥70% compound remaining at timepoint) | C=CC(=O)N1CCN(c2cc(C(=O)Nc3cc(O)cc4ccccc34)nc(OC[C@@H]3CCCN3C)n2)CC1 [Example 03, N-(3-hydroxy-1-naphthyl)-2-[[(2S)-1-methylpyrrolidin-2-yl]methoxy]-6-(4-prop-2-enoylpiperazin-1-yl)pyrimidine-4-carboxamide] | B (30%-70% compound remaining at timepoint)
A (≥70% compound remaining at timepoint) | – | – | A (≥70% compound remaining at timepoint) | – | A (≥70% compound remaining at timepoint) | A (≥70% compound remaining at timepoint) | C=CC(=O)N1CCN(c2cc(C(=O)Nc3cccc(O)c3)nc(OC[C@@H]3CCCN3C)n2)CC1 [Example 04, N-(3-hydroxyphenyl)-2-[[(2S)-1-methylpyrrolidin-2-yl]methoxy]-6-(4-prop-2-enoylpiperazin-1-yl)pyrimidine-4-carboxamide] | –
A (≥70% compound remaining at timepoint) | – | – | A (≥70% compound remaining at timepoint) | – | A (≥70% compound remaining at timepoint) | A (≥70% compound remaining at timepoint) | C=CC(=O)N1CCN(c2cc(C(=O)Nc3ccc(O)cc3)nc(OC[C@@H]3CCCN3C)n2)CC1 [Example 05] | –
A (≥70% compound remaining at timepoint) | – | – | A (≥70% compound remaining at timepoint) | – | A (≥70% compound remaining at timepoint) | A (≥70% compound remaining at timepoint) | C=CC(=O)N1CCN(c2cc(C(=O)Nc3ccccc3O)nc(OC[C@@H]3CCCN3C)n2)CC1 [Example 06, N-(2-hydroxyphenyl)-2-[[(2S)-1-methylpyrrolidin-2-yl]methoxy]-6-(4-prop-2-enoylpiperazin-1-yl)pyrimidine-4-carboxamide] | –
A (≥70% compound remaining at timepoint) | – | – | A (≥70% compound remaining at timepoint) | – | A (≥70% compound remaining at timepoint) | A (≥70% compound remaining at timepoint) | C=CC(=O)N1CCN(c2cc(C(=O)Nc3cccc4ccccc34)nc(OCCN3CCOCC3)n2)CC1 [Example 07, 2-(2-morpholinoethoxy)-N-(1-naphthyl)-6-(4-prop-2-enoylpiperazin-1-yl)pyrimidine-4-carboxamide] | –
C (≤30% compound remaining at timepoint) | C (≤30% compound remaining at timepoint) | A (≥70% compound remaining at timepoint) | A (≥70% compound remaining at timepoint) | A (≥70% compound remaining at timepoint) | C (≤30% compound remaining at timepoint) | A (≥70% compound remaining at timepoint) | C=CC(=O)N1CCN(c2cc(C(=O)Nc3cc(O)cc4ccccc34)nc(OC[C@@H]3CCCN3C)n2)C[C@@H]1CC#N [Example 08, 6-[(3S)-3-(cyanomethyl)-4-prop-2-enoyl-piperazin-1-yl]-N-(3-hydroxy-1-naphthyl)-2-[[(2S)-1-methylpyrrolidin-2-yl]methoxy]pyrimidine-4-carboxamide] | B (30%-70% compound remaining at timepoint)
A (≥70% compound remaining at timepoint) | – | – | A (≥70% compound remaining at timepoint) | – | A (≥70% compound remaining at timepoint) | A (≥70% compound remaining at timepoint) | C=CC(=O)N1CCN(c2cc(C(=O)Nc3cccc4ccccc34)nc(-c3cnn(C)c3)n2)CC1 [Example 10, 2-(1-methylpyrazol-4-yl)-N-(1-naphthyl)-6-(4-prop-2-enoylpiperazin-1-yl)pyrimidine-4-carboxamide] | –
A (≥70% compound remaining at timepoint) | – | – | A (≥70% compound remaining at timepoint) | – | A (≥70% compound remaining at timepoint) | A (≥70% compound remaining at timepoint) | C=CC(=O)N1CCN(c2cc(C(=O)Nc3cccc4ccccc34)nc(-c3ccnn3C)n2)CC1 [Example 11, 2-(2-methylpyrazol-3-yl)-N-(1-naphthyl)-6-(4-prop-2-enoylpiperazin-1-yl)pyrimidine-4-carboxamide] | A (≥70% compound remaining at timepoint)
A (≥70% compound remaining at timepoint) | – | – | A (≥70% compound remaining at timepoint) | – | A (≥70% compound remaining at timepoint) | A (≥70% compound remaining at timepoint) | C=CC(=O)N1CCN(c2cc(NC(=O)c3cccc4ccccc34)nc(N3CCN(C)CC3)n2)CC1 [Example 12, N-[2-(4-methylpiperazin-1-yl)-6-(4-prop-2-enoylpiperazin-1-yl)pyrimidin-4-yl]naphthalene-1-carboxamide] | –

Compound | 3 hr Category (compound remaining at timepoint) [1] | 6 hr Category (compound remaining at timepoint) [1] | 30 min Category (compound remaining at timepoint) [2] | 3 hr Category (compound remaining at timepoint) [2] | 6 hr Category (compound remaining at timepoint) [2] | 24 hr Category (compound remaining at timepoint) [1] | 24 hr Category (compound remaining at timepoint) [2] | 30 min Category (compound remaining at timepoint) [1]
C=CC(=O)N1CCN(c2cc(C(=O)Nc3cccc4ccccc34)nc(OC[C@@H]3CCCN3C)n2)CC1 [Example 01, 2-[[(2S)-1-methylpyrrolidin-2-yl]methoxy]-N-(1-naphthyl)-6-(4-prop-2-enoylpiperazin-1-yl)pyrimidine-4-carboxamide] | A (≥70% compound remaining at timepoint) | – | – | A (≥70% compound remaining at timepoint) | – | B (30%-70% compound remaining at timepoint) | A (≥70% compound remaining at timepoint) | –
C=CC(=O)N1CCN(c2cc(C(=O)Nc3cccc4ccccc34)nc(OC[C@@H]3CCCN3C)n2)C[C@@H]1CC#N [Example 02, 6-[(3S)-3-(cyanomethyl)-4-prop-2-enoyl-piperazin-1-yl]-2-[[(2S)-1-methylpyrrolidin-2-yl]methoxy]-N-(1-naphthyl)pyrimidine-4-carboxamide] | B (30%-70% compound remaining at timepoint) | – | – | A (≥70% compound remaining at timepoint) | – | B (30%-70% compound remaining at timepoint) | A (≥70% compound remaining at timepoint) | –
C=CC(=O)N1CCN(c2cc(C(=O)Nc3cccc4ccccc34)nc(-c3cccnc3)n2)CC1 [Example 09, N-(1-naphthyl)-6-(4-prop-2-enoylpiperazin-1-yl)-2-(3-pyridyl)pyrimidine-4-carboxamide] | A (≥70% compound remaining at timepoint) | A (≥70% compound remaining at timepoint) | A (≥70% compound remaining at timepoint) | A (≥70% compound remaining at timepoint) | A (≥70% compound remaining at timepoint) | B (30%-70% compound remaining at timepoint) | A (≥70% compound remaining at timepoint) | –
